A word on the IC50: it is the point on the concentration scale where inhibition reaches its midpoint.

Each structure is given as a SMILES string.

One assay deals with CWR22RV1 cells. Nature of the assay: Inhibition of proliferation of CWR22RV1 cells (CCK-8). The assay is classed as cell-based, human. The following applies: 6 days culture, read-out: IC50 against CWR22RV1 cells. The gist of the method:
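CWR22RV1 cells (1500/well) were exposed to 9 three-fold compound concentrations (top final 10 μM, 0.1% DMSO) for 6 days. CCK-8 was added for 2.5 h, and absorbance was read at 450 nm. IC50 was fitted with a dose-response-inhibition equation.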
For `CNC(=O)Nc1ccc2c(c1)C1(CC1)CC21OC(=O)N(CC(=O)N2[C@@H](C)CC[C@H]2c2ccc(F)cc2)C1=O` (stereo partly drawn) [Example 373, 1-(3′-(2-((2S,5S)-2-(4-fluorophenyl)-5-methylpyrrolidin-1-yl)-2-oxoethyl)-2′,4′-dioxo-dihydrospiro[cyclopropane-1,1′-indene-3′,5′-oxazolidin]-6′-yl)-3-methylurea], the IC50 was more than 2000 nM.

The assay is the same for the next values; noted with them: Homo sapiens, CWR22Rv1, 144 h, 6 days culture, read-out: IC50 against CWR22RV1 cells.
As to `CNC(=O)Nc1ccc2c(c1)CC[C@@]21OC(=O)N(CC(=O)N2C(c3ccc(F)c(F)c3)CCC2(C)C)C1=O` (stereo partly drawn) [Example 366, 1-((1R)-3′-(2-(5-(3,4-difluorophenyl)-2,2-dimethylpyrrolidin-1-yl)-2-oxoethyl)-2′,4′-dioxo-2,3-dihydrospiro[indene-1,5′-oxazolidine]-5-yl)-3-methylurea], the IC50 was in the range of 500 to 2000 nM. Same read-out and setting: with `C=C[C@H]1CC[C@@H](c2ccc(F)cc2)N1C(=O)CN1C(=O)O[C@@]2(CCc3cc(NC(=O)NC)ccc32)C1=O` [Example 367, 1-((R)-3′-(2-((2S,5R)-2-(4-fluorophenyl)-5-vinylpyrrolidin-1-yl)-2-oxoethyl)-2′,4′-dioxo-2,3-dihydrospiro[indene-1,5′-oxazolidine]-5-yl)-3-methylurea] the figure was 500 to 2000 nM; with `CNC(=O)Nc1ccc2c(c1)CC[C@@]21OC(=O)N(CC(=O)N2C(C)(C)CCCC2(C)C)C1=O` [Example 368], more than 2000 nM. On the same count and under the same terms, in the case of `CNC(=O)Nc1ccc2c(c1)CC[C@@]21OC(=O)N(CC(=O)N2C(c3ccc(F)c(F)c3)CC[C@@H]2C)C1=O` (stereo partly drawn) [Example 374, 1-((R)-3′-(2-((5S)-2-(3,4-difluorophenyl)-5-methylpyrrolidin-1-yl)-2-oxoethyl)-2′,4′-dioxo-2,3-dihydrospiro[indene-1,5′-oxazolidine]-5-yl)-3-methylurea] it was more than 2000 nM; in that of `CNC(=O)Nc1ccc2c(c1)CC[C@@]21OC(=O)N(CC(=O)N2C(c3ccncc3)CC[C@@H]2C)C1=O` (stereo partly drawn) [Example 375, 1-methyl-3-(3′-(2-((2S)-2-methyl-5-(pyridin-4-yl)pyrrolidin-1-yl)-2-oxoethyl)-2′,4′-dioxo-2,3-dihydrospiro[indene-1,5′-oxazolidine]-5-yl)urea], more than 2000 nM; in that of `C[C@H]1CC[C@@H](c2ccc(F)cc2)N1C(=O)CN1C(=O)O[C@@]2(CCc3cc(NC(=O)C(F)F)ccc32)C1=O` [Example 376, 2,2-difluoro-N—((R)-3′-(2-((2S,5S)-2-(4-fluorophenyl)-5-methylpyrrolidin-1-yl)-2-oxoethyl)-2′,4′-dioxo-2,3-dihydrospiro[indene-1,5′-oxazolidine]-5-yl)acetamide], 500 to 2000 nM. The same measure, in the same setting: in the case of `CO[C@@H](C)C(=O)Nc1ccc2c(c1)CC[C@@]21OC(=O)N(CC(=O)N2[C@@H](C)CC[C@H]2c2ccc(F)cc2)C1=O` [Example 377, (S)—N—((R)-3′-(2-((2S,5S)-2-(4-fluorophenyl)-5-methylpyrrolidin-1-yl)-2-oxoethyl)-2′,4′-dioxo-2,3-dihydrospiro[indene-1,5′-oxazolidine]-5-yl)-2-methoxypropionamide] it was 500 to 2000 nM; in that of `CNC(=O)Nc1ccc2c(c1)CC[C@@]21OC(=O)N(CC(=O)N2C(C)CC[C@H]2CN2CCC3(CC2)CC3(F)F)C1=O` (stereo partly drawn) [Example 378, 1-((1R)-3′-(2-((2S)-2-((1,1-difluoro-6-aza-spiro[2.5]octan-6-yl)methyl)-5-methylpyrrolidin-1-yl)-2-oxoethyl)-2′,4′-dioxo-2,3-dihydrospiro[indene-1,5′-oxazolidine]-5-yl)-3-methylurea], more than 2000 nM. On to `CNC(=O)Nc1ccc2c(c1)CC[C@@]21OC(=O)N(CC(=O)N2[C@H](CN3CCC4(CC3)CC4(F)F)CC[C@@H]2C)C1=O` [Example 379, 1-((R)-3′-(2-((2S,5S)-2-((1,1-difluoro-6-aza-spiro[2.5]octan-6-yl)methyl)-5-methylpyrrolidin-1-yl)-2-oxoethyl)-2′,4′-dioxo-2,3-dihydrospiro[indene-1,5′-oxazolidine]-5-yl)-3-methylurea], for which the IC50 was more than 2000 nM. Still for that read-out and setting: in the case of `CNC(=O)Nc1ccc2c(c1F)CC[C@]21OC(=O)N(CC(=O)N2[C@@H](C)CC[C@H]2c2ccc(F)c(F)c2)C1=O` [Example 381, 1-((S)-3′-(2-((2S,5S)-2-(3,4-difluorophenyl)-5-methylpyrrolidin-1-yl)-2-oxoethyl)-4-fluoro-2′,4′-dioxo-2,3-dihydrospiro[indene-1,5′-oxazolidine]-5-yl)-3-methylurea] it was more than 2000 nM; in that of `CNC(=O)Nc1ccc2c(c1F)CC[C@]21OC(=O)N(CC(=O)N2[C@@H](C)CC[C@H]2c2cc(F)c(F)c(F)c2)C1=O` [Example 382, 1-((S)-4-fluoro-3′-(2-((2S,5S)-2-methyl-5-(3,4,5-trifluorophenyl)pyrrolidin-1-yl)-2-oxoethyl)-2′,4′-dioxo-2,3-dihydrospiro[indene-1,5′-oxazolidine]-5-yl)-3-methylurea], more than 2000 nM; in that of `CNC(=O)Nc1ccc2c(c1F)CC[C@@]21OC(=O)N(CC(=O)N2[C@@H](C)CC[C@H]2c2ccc(F)c(F)c2)C1=O` [Example 383, 1-((R)-3′-(2-((2S,5S)-2-(3,4-difluorophenyl)-5-methylpyrrolidin-1-yl)-2-oxoethyl)-4-fluoro-2′,4′-dioxo-2,3-dihydrospiro[indene-1,5′-oxazolidine]-5-yl)-3-methylurea], more than 2000 nM.

Regarding `CNC(=O)Nc1ccc2c(c1F)CC[C@@]21OC(=O)N(CC(=O)N2[C@@H](C)CC[C@H]2c2cc(F)c(F)c(F)c2)C1=O` [Example 384, 1-((R)-4-fluoro-3′-(2-((2S,5S)-2-methyl-5-(3,4,5-trifluorophenyl)pyrrolidin-1-yl)-2-oxoethyl)-2′,4′-dioxo-2,3-dihydrospiro[indene-1,5′-oxazolidine]-5-yl)-3-methylurea], the IC50 was more than 2000 nM. Same read-out and setting: with `CNC(=O)Nc1cc(F)c2c(c1)CC[C@]21OC(=O)N(CC(=O)N2[C@@H](C)CC[C@H]2c2ccc(F)c(F)c2)C1=O` [Example 385, 1-((S)-3′-(2-((2S,5S)-2-(3,4-difluorophenyl)-5-methylpyrrolidin-1-yl)-2-oxoethyl)-7-fluoro-2′,4′-dioxo-2,3-dihydrospiro[indene-1,5′-oxazolidine]-5-yl)-3-methylurea] the figure was more than 2000 nM; with `CNC(=O)Nc1cc(F)c2c(c1)CC[C@]21OC(=O)N(CC(=O)N2[C@@H](C)CC[C@H]2c2cc(F)c(F)c(F)c2)C1=O` [Example 386, 1-((S)-7-fluoro-3′-(2-((2S,5S)-2-methyl-5-(3,4,5-trifluorophenyl)pyrrolidin-1-yl)-2-oxoethyl)-2′,4′-dioxo-2,3-dihydrospiro[indene-1,5′-oxazolidine]-5-yl)-3-methylurea], more than 2000 nM. Turning to `CNC(=O)Nc1cc(F)c2c(c1)CC[C@@]21OC(=O)N(CC(=O)N2[C@@H](C)CC[C@H]2c2ccc(F)c(F)c2)C1=O` [Example 387, 1-((R)-3′-(2-((2S,5S)-2-(3,4-difluorophenyl)-5-methylpyrrolidin-1-yl)-2-oxoethyl)-7-fluoro-2′,4′-dioxo-2,3-dihydrospiro[indene-1,5′-oxazolidine]-5-yl)-3-methylurea], the IC50 lay within 500 to 2000 nM.

For the compound `CNC(=O)Nc1cc(F)c2c(c1)CC[C@@]21OC(=O)N(CC(=O)N2[C@@H](C)CC[C@H]2c2cc(F)c(F)c(F)c2)C1=O` [Example 388], the 50% inhibitory concentration (IC50) is more than 2000 nM. Same read-out and setting: in the case of `CNC(=O)Nc1cc2c(cc1F)[C@]1(CC2)OC(=O)N(CC(=O)N2[C@@H](C)CC[C@H]2c2ccc(F)c(F)c2)C1=O` [Example 391, 1-((S)-3′-(2-((2S,5S)-2-(3,4-difluorophenyl)-5-methylpyrrolidin-1-yl)-2-oxoethyl)-6-fluoro-2′,4′-dioxo-2,3-dihydrospiro[indene-1,5′-oxazolidine]-5-yl)-3-methylurea] it was more than 2000 nM; in that of `CNC(=O)Nc1cc2c(cc1F)[C@]1(CC2)OC(=O)N(CC(=O)N2[C@@H](C)CC[C@H]2c2cc(F)c(F)c(F)c2)C1=O` [Example 392], 500 to 2000 nM. Same read-out and setting: in the case of `CNC(=O)Nc1ccc2c(c1)CC[C@@]21OC(=O)N(CC(=O)N2CCC[C@H]2c2ccccc2OC)C1=O` [compound 339] it was more than 2000 nM; in that of `CCc1cc(F)ccc1C1CCC(C)N1C(=O)CN1C(=O)O[C@@]2(CCc3cc(NC(=O)NC)ccc32)C1=O` (some centres unmarked) [compound 358], 500 to 2000 nM; in that of `C[C@H]1CC[C@@H](c2ccc(F)cc2)N1C(=O)CN1C(=O)O[C@@]2(CCc3cc(N)ccc32)C1=O` [compound 372], more than 2000 nM.

Source of the values: patent US20220087996A1, “Histone acetylase p300 inhibitor and use thereof” (HINOVA PHARMACEUTICALS INC., priority 2018, published 2022).
